Starred links: 1 amine or outer side, 2 acyl side, 3 side chain; linkers in the order of their positions; H or OH if unused. Non-standard residues stand in square brackets, D forms with d. Residues, ends and D or L forms follow the SMILES beside them. dPro(4R-(4-pyridylmethyl)) = O=C(O)[C@H]1C[C@@H](Cc2ccncc2)CN1; X17 = CN(C)C(=O)c1ccc(-c2ccc(C[C@H](N[*:1])C(=O)[*:2])cc2)cc1; Trp(βS-Me,4-F) = C[C@@H](c1c[nH]c2cccc(F)c12)[C@H](N)C(=O)O; Bip(4'-CONH2) = NC(=O)c1ccc(-c2ccc(C[C@H](N)C(=O)O)cc2)cc1; Ala(1-bicyclo(1.1.1)pentyl) = N[C@@H](CC12CC(C1)C2)C(=O)O; Ala(pyrimidin-5-yl) = N[C@@H](Cc1cncnc1)C(=O)O; Phe(4-COOH) = N[C@@H](Cc1ccc(C(=O)O)cc1)C(=O)O; Bip = N[C@@H](Cc1ccc(-c2ccccc2)cc1)C(=O)O; Pro(cis-4-F) = O=C(O)[C@@H]1C[C@H](F)CN1; d(αMeD) = C[C@@](N)(CC(=O)O)C(=O)O; 4Pal = N[C@@H](Cc1ccncc1)C(=O)O; d(αMeS) = C[C@@](N)(CO)C(=O)O; Dab = NCC[C@H](N)C(=O)O; Aib = CC(C)(N)C(=O)O
The compounds below were run against T1, IL-1β (Homo sapiens, UniProt P01584) (assay: IL-6 assay in MRC5 cells: inhibition of IL-1β induced IL-6 secretion (AlphaLISA)). Details: inhibition of IL-1β induced IL-6 secretion in MRC5 cells; read-out: MRC5 IC50.
T1 construct: purchased BioLegend 579404
T1 sequence (P01584 117-269): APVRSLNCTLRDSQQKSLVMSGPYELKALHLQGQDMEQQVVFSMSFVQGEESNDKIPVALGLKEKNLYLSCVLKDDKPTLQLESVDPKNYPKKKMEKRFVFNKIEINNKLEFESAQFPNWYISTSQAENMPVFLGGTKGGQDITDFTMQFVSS
Assay type: cell-based
Outline: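 Compound was pre-incubated 1 h at ambient temperature with recombinant human IL-1β at 2λ EC80 before adding human lung fibroblast MRC5 cells (3000/well) in EMEM with 0.025% BSA. After overnight culture at 37 °C, 5% CO2, secreted IL-6 in conditioned medium was measured by AlphaLISA; IC50 from 4-parameter logistic fits.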

| Compound | IC50 [nM] |
| --- | --- |
| C[C@@H](c1c[nH]c2cccc(F)c12)[C@@H]1NC(=O)[C@@H]2C[C@H](F)CN2C(=O)CNC(=O)[C@H](Cc2ccc(C(=O)O)cc2)NC(=O)[C@H](Cc2ccncc2)NC(=O)[C@H](Cc2ccc(-c3ccc(C(N)=O)cc3)cc2)NC(=O)[C@H]2C[C@@H](Cc3ccncc3)CN2C(=O)CNC(=O)[C@H](CCN)NC(=O)[C@H](CCC(N)=O)NC(=O)[C@H](Cc2cncnc2)NC(=O)[C@@](C)(CO)NC(=O)[C@H](Cc2c[nH]c3ccccc23)NC(=O)[C@H](CO)NC(=O)C(C)(C)NC1=O [Example 339] (cyclo([Bip(4'-CONH2)][4Pal][Phe(4-COOH)]G[Pro(cis-4-F)][Trp(βS-Me,4-F)][Aib]SW[d(αMeS)][Ala(pyrimidin-5-yl)]Q[Dab]G[dPro(4R-(4-pyridylmethyl))])) | 0.024 |
| C[C@@H](c1c[nH]c2cccc(F)c12)[C@@H]1NC(=O)[C@@H]2C[C@H](F)CN2C(=O)CNC(=O)[C@H](Cc2ccc(C(=O)O)cc2)NC(=O)[C@H](Cc2ccncc2)NC(=O)[C@H](Cc2ccc(-c3ccccc3)cc2)NC(=O)[C@H]2C[C@@H](Cc3ccncc3)CN2C(=O)CNC(=O)[C@H](CCN)NC(=O)[C@H](CCC(N)=O)NC(=O)[C@H](Cc2cncnc2)NC(=O)[C@@](C)(CO)NC(=O)[C@H](Cc2c[nH]c3ccccc23)NC(=O)[C@H](CO)NC(=O)C(C)(C)NC1=O [Example 340] (cyclo([Bip][4Pal][Phe(4-COOH)]G[Pro(cis-4-F)][Trp(βS-Me,4-F)][Aib]SW[d(αMeS)][Ala(pyrimidin-5-yl)]Q[Dab]G[dPro(4R-(4-pyridylmethyl))])) | 0.021 |
| C[C@@H](c1c[nH]c2cccc(F)c12)[C@@H]1NC(=O)[C@@H]2C[C@H](F)CN2C(=O)CNC(=O)[C@H](Cc2ccc(C(=O)O)cc2)NC(=O)[C@H](CC23CC(C2)C3)NC(=O)[C@H](Cc2ccc(-c3ccc(C(=O)N(C)C)cc3)cc2)NC(=O)[C@H]2C[C@@H](Cc3ccncc3)CN2C(=O)CNC(=O)[C@H](CCN)NC(=O)[C@H](CCC(N)=O)NC(=O)[C@H](Cc2cncnc2)NC(=O)[C@@](C)(CC(=O)O)NC(=O)[C@H](Cc2c[nH]c3ccccc23)NC(=O)[C@H](CO)NC(=O)C(C)(C)NC1=O [Example 341] (cyclo([X17][Ala(1-bicyclo(1.1.1)pentyl)][Phe(4-COOH)]G[Pro(cis-4-F)][Trp(βS-Me,4-F)][Aib]SW[d(αMeD)][Ala(pyrimidin-5-yl)]Q[Dab]G[dPro(4R-(4-pyridylmethyl))])) | 0.024 |

Next, values leading:

| IC50 [nM] | Compound |
| --- | --- |
| 0.022 | C[C@@H](c1c[nH]c2cccc(F)c12)[C@@H]1NC(=O)[C@@H]2C[C@H](F)CN2C(=O)CNC(=O)[C@H](Cc2ccc(C(=O)O)cc2)NC(=O)[C@H](CC23CC(C2)C3)NC(=O)[C@H](Cc2ccc(-c3ccc(C(N)=O)cc3)cc2)NC(=O)[C@H]2C[C@@H](Cc3ccncc3)CN2C(=O)CNC(=O)[C@H](CCN)NC(=O)[C@H](CCC(N)=O)NC(=O)[C@H](Cc2cncnc2)NC(=O)[C@@](C)(CC(=O)O)NC(=O)[C@H](Cc2c[nH]c3ccccc23)NC(=O)[C@H](CO)NC(=O)C(C)(C)NC1=O [Example 342] (cyclo([Bip(4'-CONH2)][Ala(1-bicyclo(1.1.1)pentyl)][Phe(4-COOH)]G[Pro(cis-4-F)][Trp(βS-Me,4-F)][Aib]SW[d(αMeD)][Ala(pyrimidin-5-yl)]Q[Dab]G[dPro(4R-(4-pyridylmethyl))])) |
| 0.026 | C[C@@H](c1c[nH]c2cccc(F)c12)[C@@H]1NC(=O)[C@@H]2C[C@H](F)CN2C(=O)CNC(=O)[C@H](Cc2ccc(C(=O)O)cc2)NC(=O)[C@H](CC23CC(C2)C3)NC(=O)[C@H](Cc2ccc(-c3ccccc3)cc2)NC(=O)[C@H]2C[C@@H](Cc3ccncc3)CN2C(=O)CNC(=O)[C@H](CCN)NC(=O)[C@H](CCC(N)=O)NC(=O)[C@H](Cc2cncnc2)NC(=O)[C@@](C)(CC(=O)O)NC(=O)[C@H](Cc2c[nH]c3ccccc23)NC(=O)[C@H](CO)NC(=O)C(C)(C)NC1=O [Example 343] (cyclo([Bip][Ala(1-bicyclo(1.1.1)pentyl)][Phe(4-COOH)]G[Pro(cis-4-F)][Trp(βS-Me,4-F)][Aib]SW[d(αMeD)][Ala(pyrimidin-5-yl)]Q[Dab]G[dPro(4R-(4-pyridylmethyl))])) |

Reference: patent publication US20260242419A1, “A CYCLIC PEPTIDE FOR TRAPPING INTERLEUKIN-1 BETA” (Merck Sharp & Dohme LLC, priority 2023, published 2026)
